{
  "source": "patent US6576656B1",
  "about": "“Oxindole derivative” (Sumitomo Pharmaceuticals Co., Ltd., priority 1998, dated 2003)",
  "key": {"[1]": {"assay": "increase in the weight of rats after oral administration for 9 days", "assay_type": "in vivo, rat", "conditions": "10 mg/kg/day×2 orally for 9 days, 11-week-old F 344/N rats (6/group); p<0.01; distilled water group 13.5±2.3 g", "procedure": "The compound of Example 74 (10 mg/kg/day×2) were administered orally to 11-week-old F 344/N rats (6/group) for 9 days and increase in the weight of each rat was measured."}, "rat pituitary cells": {"test_system": "rat pituitary cells", "assay": "growth hormone releasing activity from rat pituitary cells in vitro (GH measured by RIA)", "assay_type": "cell-based", "conditions": "read-out: EC50 (GH releasing efficacy)", "procedure": "Compounds of the present invention were evaluated for their growth hormone releasing activity from rat pituitary cells in vitro in accordance with the method described in the literature (R. G. Smith et al., Science, 260, 1640 (1993)). Pituitary glands removed from 7-week-old Wistar/ST male rats were washed with HBSS (Hank's balanced salt solution) three times and minced into small pieces (ca. 1 mm^2) using a pair of scissors. […] An enzyme solution (0.1 mL per a pituitary gland) was added and the cell dispersion was carried out in a water bath at 37° C. for ca 20-30 min, during which time the digested mixture was mixed by successive up-take and down-take of the suspension using a pipette, every 5 minutes. The resulting cell suspension was centrifuged at 1200 rpm for 2-3 min at room temperature and the supernatant fluid was discarded. A cultured medium was added and the resulting cell suspension was again centrifuged at 1200 rpm for 2-3 min at room temperature and the supernatant fluid was discarded. This procedure was repeated another 2 times. […] The culture medium was discarded and an assay medium (0.1 mL) was added. The incubation was continued for 1.5 h and the cells were washed with the assay medium. […] The supernatant fluid was recovered and the GH content present was measured by RIA (radioimmunoassay). An aliquot of the solution was diluted to 0.05 mL with a RIA buffer which consisted of PBS (pH 7.3) containing 1% BSA, 0.1% NaN3 and 25 mM EDTA. […] Cell membrane fractions containing protein A were added and the mixture was allowed to stand for 20 min and centrifuged. The supernatant fluid was removed and the precipitates were washed with the RIA buffer. The ^125I content in the precipitates was measured. The GH concentration in the sample was calculated from the standard curve made by using the standard GH sample. The EC50 values of the test compounds were determined using recurrent calculation from the following equation, where X is the concentration of the test compound, Y is the GH concentration at the given assay, and B is the EC50 value. C means recurrently calculated GH concentration in the absence of the test compound and A+C means recurrently calculated GH concentration when a maximum amount of the test compound is present. […] The culture medium used here consisted of DMEM (Dulbecco's Modified Eagle's Medium) containing 10% horse serum, 2.5% fetal bovine serum, 1% nonessential amino acids, 0.01% streptomycin and penicillin (100 IU/mL). The cultured medium described above was adjusted to pH 7.3 by adding a 25 mM HEPES buffer and the resulting solution was used as the assay medium. […] The resulting mixture was used as the test compound solution. […]"}},
  "note": "pEC50: −log10 of the molar value. Read-outs that look alike come from different tables or passages of the source.",
  "data": [
    {"compound": "CCN(CC)CCN1C(=O)C(O)(c2ccccc2Cl)c2c1cc(C(N)=O)cc2C(F)(F)F", "note": "(single isomer, unassigned; (+)) [Example 74, (+)-1-(2-Diethylaminoethyl)-4-trifluoromethyl-6-carbamoyl-3-hydroxy-3-(2-chlorophenyl)oxindole]", "values": [
      {"measurement": "increase in the weight", "setting": "[1]", "value": "19.5 ± 2.1", "unit": "g"},
      {"measurement": "pEC50", "setting": "rat pituitary cells; Rattus norvegicus, 0.25 h", "value": 9.30}
    ]},
    {"compound": "CCN(CC)CCN1C(=O)C(O)(c2ccccc2F)c2c(Br)cccc21", "note": "(centres unmarked) [Example 21, 4-Bromo-1-(2-diethylaminoethyl)-3-hydroxy-3-(2-fluorophenyl)oxindole]", "values": [
      {"measurement": "pEC50", "setting": "rat pituitary cells; Rattus norvegicus, 0.25 h", "value": 8.40}
    ]},
    {"compound": "CCN(CC)CCN1C(=O)C(O)(c2ccccc2Cl)c2c1cc(C#CCCC(=O)N1CCOCC1)cc2C(F)(F)F", "note": "(centres unmarked) [Example 70, 1-(2-Diethylaminoethyl)-4-trifluoromethyl-6-(4-morpholinocarbonyl-1-butynyl)-3-hydroxy-3-(2-chlorophenyl)oxindole]", "values": [
      {"measurement": "pEC50", "setting": "rat pituitary cells; Rattus norvegicus, 0.25 h", "value": 8.30}
    ]},
    {"compound": "CCN(CC)CCN1C(=O)C(O)(c2ccc(Cl)cc2Cl)c2c1cc(C(N)=O)cc2C(F)(F)F", "note": "(centres unmarked) [Example 91, 1-(2-Diethylaminoethyl)-4-trifuoromethyl-6-carbamoyl-3-hydroxy-3-(2,4-dichlorophenyl)oxindole]", "values": [
      {"measurement": "pEC50", "setting": "rat pituitary cells; cultured pituitary cells of 7-week-old Wistar/ST male rats, 15 min at 37° C., GH by RIA", "value": 8.92}
    ]}
  ]
}
